# Test results taken from patent US20240122180A1, “FUNGICIDAL HALOMETHYL KETONES AND HYDRATES AND THEIR MIXTURES” (FMC Corporation, priority 2020, published 2024).
# How the values were obtained:
# [1] = test system: Phakopsora pachyrhizi (the causal agent of Asian soybean rust); test: Test A: preventive spray on soybean seedlings, visual disease rating (100 = 100% control; * 50 ppm, ** 10 ppm, *** 250 ppm); assay type: in vivo; details: 100 = 100% disease control; for pest or weed control at 50 ppm: Phakopsora pachyrhizi
# How it was run: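 Preventive test: one day after spraying compound (acetone/water suspension, 250 ppm PEG400), seedlings received rust spore inoculum, 24 h in saturated air then 8 days in growth chamber, both at 22 °C. Disease control scored visually, 100 = complete, 0 = none, relative to untreated controls.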
# [2] = test system: Puccinia recondita f. sp. tritici (the causal agent of wheat leaf rust); test: Test B: preventive spray on wheat seedlings, disease rating (100 = 100% control; * 50 ppm, ** 10 ppm, *** 250 ppm); assay type: in vivo; details: 100 = 100% disease control; for pest or weed control at 50 ppm: Puccinia recondita
# How it was run: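 Preventive test: Puccinia recondita f. sp. tritici spores were inoculated one day after run-off spraying of wheat seedlings with test suspension (acetone/water 50/50, 250 ppm PEG400). After 24 h in saturated air and 6 days in a growth chamber, both at 20° C, control was scored 0–100 versus untreated plants.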
# [3] = 10 ppm test suspension, soybean seedlings
# [4] = 10 ppm test suspension, wheat seedlings
# [5] = 50 ppm test suspension, 0 = no control
# [6] = 10 ppm test suspension, 0 = no control
Compound,"Test A disease control rating [1, 3]","Test B disease control rating [2, 4]",also measured
CCOC(=O)c1cnn(Cc2ccc(O/C=C(\OCCO)C(F)(F)F)cc2)c1 [compound 145],82%,0%,
COC(=O)c1ccc(OCC2(C(F)(F)F)OCCO2)cc1 [compound 189],0%,0%,
CCOC(=O)c1cnn(Cc2ccc(O/C=C(/OCC)C(F)(F)F)cc2)c1 [compound 399],,,"pest or weed control at 50 ppm [1, 5]: 97%; pest or weed control at 50 ppm [2, 5]: 0%"
CCOC(=O)c1ccc(O/C=C(\OCC)C(F)(F)F)cc1 [compound 95],0%,0%,
O=C(NCc1ccc(OCC2(C(F)(F)F)OCCO2)cc1)C1CC1 [compound 176],0%,0%,
O=C(OCC1CCC1)c1cnn(Cc2ccc(OCC3(C(F)(F)F)OCCO3)cc2)c1 [compound 249],100%,0%,
CCO/C(=C\Oc1ccc(Cn2ccc(C(=O)OCCCCl)n2)cc1)C(F)(F)F [compound 362],,,"Test A disease control rating [1, 6]: 100%; Test B disease control rating [2, 6]: 0%"
CCOC(=O)C1=NOC(Cc2ccc(OCC3(C(F)(F)F)OCCO3)cc2)C1 (centres unmarked) [compound 289],,,"Test A disease control rating [1, 6]: 0%; Test B disease control rating [2, 6]: 0%"
CCO/C(=C\Oc1ccc(CC#N)cc1)C(F)(F)F [compound 154],0%,0%,
CN(C)C(=O)C1=NOC(c2ccc(OCC(O)(O)C(F)(F)F)cc2)C1 (centres unmarked) [compound 41],92%,23%,
CCOC(=COc1ccc(Cn2ccc(C(=O)OC(C)(C)C)n2)cc1)C(F)(F)F [compound 253],0%,0%,
CCO/C(=C\Oc1ccc(Cn2ccc(C(=O)OCCOC)n2)cc1)C(F)(F)F [compound 360],,,"Test A disease control rating [1, 6]: 100%; Test B disease control rating [2, 6]: 0%"
C=CCOC(=O)c1cnn(Cc2ccc(OCC3(C(F)(F)F)OCCO3)cc2)c1 [compound 188],100%,0%,
CCOC(=O)Cc1nnn(Cc2ccc(O/C=C(\OCC)C(F)(F)F)cc2)n1 [compound 83],82%,0%,
CCO/C(=C\Oc1ccc(CO)cc1)C(F)(F)F [compound 195],0%,0%,
CCO/C(=C\Oc1ccc(CN2C(=O)c3ccccc3C2=O)cc1)C(F)(F)F [compound 184],0%,0%,
CCOC(=O)c1cnn(Cc2ccc(C/C=C(\OCC)C(F)(F)F)cc2)c1 [compound 140],98%,23%,
CCO/C(=C\Oc1ccc(Cn2cccn2)cc1)C(F)(F)F [compound 151],0%,0%,
COC(COc1cccc(Cn2cc(Br)cn2)c1)(O[Si](C)(C)C)C(F)(F)F (centres unmarked) [compound 385],,,"pest or weed control at 50 ppm [1, 5]: 100%; pest or weed control at 50 ppm [2, 5]: 68%"
CCO/C(=C\Oc1ccc(COC(N)=O)cc1)C(F)(F)F [compound 193],0%,86%,
CCOC(=O)c1cnn(CCc2cccc(O/C=C(\OCC)C(F)(F)F)c2)c1 [compound 345],,,"Test A disease control rating [1, 6]: 0%; Test B disease control rating [2, 6]: 0%"
N#Cc1cnn(Cc2ccc(OCC3(C(F)(F)F)OCCO3)cc2)c1 [compound 209],89%,0%,
CCO/C(=C\Oc1ccc(Cn2cc(Cl)cn2)cc1)C(F)(F)F [compound 180],0%,0%,
CCO/C(=C\Oc1ccc(Cn2cc(C(=O)NCC3CC3)cn2)cc1)C(F)(F)F [compound 117],23%,0%,
CCO/C(=C\Oc1ccc(Cn2ncnc2C(=O)OC)cc1)C(F)(F)F [compound 122],0%,0%,

Compound,"Test A disease control rating [1, 3]","Test B disease control rating [2, 4]",also measured
CCCCOC(=O)c1cnn(Cc2cccc(O/C=C(\OCC)C(F)(F)F)c2)c1 [compound 339],,,"Test A disease control rating [1, 6]: 100%; Test B disease control rating [2, 6]: 0%"
CON(Cc1ccc(OCC2(C(F)(F)F)OCCO2)cc1)C(=O)OC(C)(C)C [compound 238],73%,0%,
CCO/C(=C\Oc1ccc(CCn2cc(C(=O)OC)cn2)cc1)C(F)(F)F [compound 354],,,"Test A disease control rating [1, 6]: 100%; Test B disease control rating [2, 6]: 0%"
CCO/C(=C\Oc1ccc(C(=O)O)cc1)C(F)(F)F [compound 72],,,"Test A disease control rating ([1]; 50 ppm test suspension, soybean seedlings): 13%; Test B disease control rating ([2]; 50 ppm test suspension, wheat seedlings): 0%"
CCO/C(=C\Oc1ccc(Cn2ccc(C(=O)O)n2)cc1)C(F)(F)F [compound 299],,,"Test A disease control rating [1, 6]: 100%; Test B disease control rating [2, 6]: 0%"
CCOC(=O)c1cnn(Cc2ccc(O/C=C(\OCC)C(F)(F)F)cc2)n1 [compound 119],97%,0%,
N#CCc1ccc(OCC2(C(F)(F)F)OCCO2)cc1 [compound 239],0%,0%,
CS(=O)(=O)c1nccc(Cc2ccc(OCC3(C(F)(F)F)OCCO3)cc2)n1 [compound 282],,,"Test A disease control rating [1, 5]: 0%; Test B disease control rating [2, 5]: 0%"
C=C(C)COC(=O)c1cnn(Cc2ccc(OCC3(C(F)(F)F)OCCO3)cc2)c1 [compound 228],100%,0%,
CCOC(=O)c1cnn(Cc2cccc(O/C=C(\OCC)C(F)(F)F)c2C)c1 [compound 303],,,"Test A disease control rating [1, 5]: 0%; Test B disease control rating [2, 5]: 0%"
CCO/C(=C\Oc1ccc(CSC#N)cc1)C(F)(F)F [compound 155],0%,0%,
CCOC(=COc1ccc(CC2CC(C(=O)N(C)C)=NO2)cc1)C(F)(F)F (centres unmarked) [compound 288],,,"Test A disease control rating [1, 5]: 96%; Test B disease control rating [2, 5]: 0%"
C#CCOC(=O)c1cnn(Cc2cccc(O/C=C(\OCC)C(F)(F)F)c2)c1 [compound 336],,,"Test A disease control rating [1, 6]: 100%; Test B disease control rating [2, 6]: 0%"
COC(=O)COC(=O)c1cnn(Cc2ccc(OCC3(C(F)(F)F)OCCO3)cc2)c1 [compound 203],50%,0%,
COC(=O)c1cnn(Cc2ccc(OCC(O)(O)C(F)(F)F)cc2)c1 [compound 37],99%,86%,
CCO/C(=C\Oc1ccc(C(=O)OC(C)C)cc1)C(F)(F)F [compound 73],0%,0%,
COC(=O)NN=Cc1ccc(OCC2(C(F)(F)F)OCCO2)cc1 [compound 27],0%,0%,
O=C(OC1CCC1)c1cnn(Cc2ccc(OCC3(C(F)(F)F)OCCO3)cc2)c1 [compound 318],,,"Test A disease control rating [1, 6]: 100%; Test B disease control rating [2, 6]: 0%"
C#CCOC(=O)c1cnn(Cc2ccc(OCC3(C(F)(F)F)OCCO3)cc2)c1 [compound 15],100%,0%,
CCCOC(=O)c1cnn(Cc2ccc(OCC(O)(O)C(F)(F)F)cc2)c1 [compound 42],99%,85%,
CCO/C(=C\Oc1ccc(Cn2cnc(SC)n2)cc1)C(F)(F)F [compound 261],,,"Test A disease control rating [1, 6]: 0%; Test B disease control rating [2, 6]: 0%"
CCO/C(=C\Oc1ccc(Cn2cnc(C#N)n2)cc1)C(F)(F)F [compound 82],97%,0%,
CCNC(=O)c1cnn(Cc2cccc(O/C=C(\OCC)C(F)(F)F)c2)c1 [compound 343],,,"Test A disease control rating [1, 6]: 0%; Test B disease control rating [2, 6]: 0%"
CCOC(=O)c1cnn(Cc2ccc(OC)c(O/C=C(\OCC)C(F)(F)F)c2)c1 [compound 408],,,"Test A disease control rating [1, 5]: 44%; Test B disease control rating [2, 5]: 0%"
